Data reported in ChEMBL document CHEMBL1201862, “PubChem BioAssay data set” (2004).
Values belong to the compound of their own block, whether it stands above or below them. Activity calls are given as the source filed them. Rule as the data show it, for most assays here: actives have a measured IC50 and inactives only a lower limit.

What was measured:
Caspase-6 = target: T1, Caspase-6 (Homo sapiens, UniProt P55212); assay: human caspase-6 inhibitors, dose response, biochemical, VEID-R110 fluorescence, cherry-pick (AID 720632)
T1 sequence (P55212 whole entry): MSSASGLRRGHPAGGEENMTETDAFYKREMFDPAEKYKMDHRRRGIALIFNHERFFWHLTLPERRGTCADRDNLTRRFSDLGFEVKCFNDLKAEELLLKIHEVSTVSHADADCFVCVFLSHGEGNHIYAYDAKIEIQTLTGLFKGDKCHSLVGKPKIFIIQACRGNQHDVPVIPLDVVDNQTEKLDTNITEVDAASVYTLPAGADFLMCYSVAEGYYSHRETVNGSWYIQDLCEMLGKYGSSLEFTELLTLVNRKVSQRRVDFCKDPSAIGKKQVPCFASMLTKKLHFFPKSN

Caspase-7 = Caspase-7 (Homo sapiens, UniProt P55210); assay: human caspase-7 inhibitors, dose response, selectivity assay for caspase-6 inhibitor project, biochemical, DEVD-R110 fluorescence, cherry-pick (AID 743295)
[1] = target: DNA (cytosine-5)-methyltransferase 1 (Homo sapiens, UniProt P26358); assay: DNMT1 methyltransferase inhibitors, confirmation, biochemical, fluorescent molecular beacon (AID 602386); assay type: functional
DNA (cytosine-5)-methyltransferase 1, sequence (P26358 whole entry): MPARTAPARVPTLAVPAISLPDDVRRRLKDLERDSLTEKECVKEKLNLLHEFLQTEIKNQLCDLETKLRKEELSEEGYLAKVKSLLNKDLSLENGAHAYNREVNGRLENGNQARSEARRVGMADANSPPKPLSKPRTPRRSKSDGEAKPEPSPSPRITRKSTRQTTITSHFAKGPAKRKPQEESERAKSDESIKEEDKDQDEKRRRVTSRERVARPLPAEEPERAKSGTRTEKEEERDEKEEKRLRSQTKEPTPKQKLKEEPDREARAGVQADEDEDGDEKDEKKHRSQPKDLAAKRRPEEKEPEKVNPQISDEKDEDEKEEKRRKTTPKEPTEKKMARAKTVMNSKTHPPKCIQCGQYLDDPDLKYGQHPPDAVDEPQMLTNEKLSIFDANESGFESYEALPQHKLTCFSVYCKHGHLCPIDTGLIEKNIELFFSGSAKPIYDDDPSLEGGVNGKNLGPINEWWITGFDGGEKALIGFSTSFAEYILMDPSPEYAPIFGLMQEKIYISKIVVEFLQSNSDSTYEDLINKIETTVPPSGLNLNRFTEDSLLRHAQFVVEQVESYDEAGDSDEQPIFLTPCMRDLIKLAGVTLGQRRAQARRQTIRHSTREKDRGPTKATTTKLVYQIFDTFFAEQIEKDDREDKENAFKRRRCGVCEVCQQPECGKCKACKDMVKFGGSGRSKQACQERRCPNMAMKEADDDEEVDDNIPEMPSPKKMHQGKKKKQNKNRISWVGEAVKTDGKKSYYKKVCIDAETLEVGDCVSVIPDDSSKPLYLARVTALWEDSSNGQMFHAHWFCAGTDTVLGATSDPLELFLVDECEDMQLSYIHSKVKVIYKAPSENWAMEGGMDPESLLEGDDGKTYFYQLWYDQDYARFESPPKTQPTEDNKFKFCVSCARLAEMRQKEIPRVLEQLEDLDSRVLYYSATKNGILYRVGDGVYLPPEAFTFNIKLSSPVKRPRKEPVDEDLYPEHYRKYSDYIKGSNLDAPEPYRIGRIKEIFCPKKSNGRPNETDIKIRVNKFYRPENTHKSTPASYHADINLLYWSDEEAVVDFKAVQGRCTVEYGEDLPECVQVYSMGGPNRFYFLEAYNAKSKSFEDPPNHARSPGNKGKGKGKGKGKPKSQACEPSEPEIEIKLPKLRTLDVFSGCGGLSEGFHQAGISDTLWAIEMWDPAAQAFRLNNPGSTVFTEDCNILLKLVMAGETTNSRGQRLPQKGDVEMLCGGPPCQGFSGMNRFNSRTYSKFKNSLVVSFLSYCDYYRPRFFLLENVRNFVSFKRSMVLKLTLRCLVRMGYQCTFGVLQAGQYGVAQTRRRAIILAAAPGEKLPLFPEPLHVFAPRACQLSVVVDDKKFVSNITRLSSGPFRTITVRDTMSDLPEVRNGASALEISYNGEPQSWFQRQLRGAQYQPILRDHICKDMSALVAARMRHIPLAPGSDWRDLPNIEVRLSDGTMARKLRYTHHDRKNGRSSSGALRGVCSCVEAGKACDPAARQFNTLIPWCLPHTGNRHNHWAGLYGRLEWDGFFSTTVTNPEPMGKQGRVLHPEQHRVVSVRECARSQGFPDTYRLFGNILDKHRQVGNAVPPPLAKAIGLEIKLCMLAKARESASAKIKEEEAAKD

[2] = target: T2, Dual specificity protein phosphatase 6 (Rattus norvegicus, UniProt Q64346); assay type: functional
T2 sequence (Q64346 whole entry): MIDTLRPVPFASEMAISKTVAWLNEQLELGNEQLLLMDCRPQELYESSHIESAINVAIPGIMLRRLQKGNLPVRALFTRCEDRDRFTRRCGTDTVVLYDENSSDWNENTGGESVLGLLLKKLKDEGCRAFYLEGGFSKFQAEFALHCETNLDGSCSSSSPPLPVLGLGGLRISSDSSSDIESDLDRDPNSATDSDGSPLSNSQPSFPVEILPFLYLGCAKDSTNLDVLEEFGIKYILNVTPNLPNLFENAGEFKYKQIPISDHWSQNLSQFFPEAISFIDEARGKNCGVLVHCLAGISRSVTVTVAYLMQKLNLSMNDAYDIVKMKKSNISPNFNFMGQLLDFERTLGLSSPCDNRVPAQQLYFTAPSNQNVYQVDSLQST

Caspase-8 = Caspase-8 (Homo sapiens, UniProt Q14790); assay: caspase-8 inhibition counter-screen, dose response, selectivity assay for caspase-6 inhibitor project, biochemical, Z-IETD-R110 fluorescence, cherry-picked samples (AID 743294)
Caspase-8, sequence (Q14790 217-374 limits assumed): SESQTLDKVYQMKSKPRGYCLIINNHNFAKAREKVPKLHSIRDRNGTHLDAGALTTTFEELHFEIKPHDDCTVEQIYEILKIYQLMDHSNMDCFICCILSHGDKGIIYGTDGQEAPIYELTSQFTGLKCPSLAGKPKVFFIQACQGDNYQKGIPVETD
Caspase-8, sequence (Q14790 385-479 limits assumed): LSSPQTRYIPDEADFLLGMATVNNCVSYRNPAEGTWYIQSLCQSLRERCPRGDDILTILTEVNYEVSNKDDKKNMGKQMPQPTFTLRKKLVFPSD

[3] = target: Glyceraldehyde-3-phosphate dehydrogenase (Homo sapiens, UniProt P04406)
Glyceraldehyde-3-phosphate dehydrogenase, sequence (P04406 whole entry): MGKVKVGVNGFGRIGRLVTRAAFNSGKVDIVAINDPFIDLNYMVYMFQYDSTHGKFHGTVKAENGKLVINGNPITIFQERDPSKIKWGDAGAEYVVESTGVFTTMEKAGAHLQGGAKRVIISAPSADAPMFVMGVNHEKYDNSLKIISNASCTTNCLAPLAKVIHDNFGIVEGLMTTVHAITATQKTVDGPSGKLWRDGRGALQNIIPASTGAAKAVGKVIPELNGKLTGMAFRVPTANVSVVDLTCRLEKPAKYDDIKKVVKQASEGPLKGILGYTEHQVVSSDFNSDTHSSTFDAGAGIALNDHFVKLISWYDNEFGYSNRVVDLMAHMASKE

[4] = target: T2, Dual specificity protein phosphatase 6
[5] = target: Heat shock 70 kDa protein 1A (Homo sapiens, UniProt P0DMV8); assay: Hsp70 inhibitors, SAR follow-up, biochemical, fluorescence polarization (AID 1072)
Heat shock 70 kDa protein 1A, sequence (P0DMV8 whole entry): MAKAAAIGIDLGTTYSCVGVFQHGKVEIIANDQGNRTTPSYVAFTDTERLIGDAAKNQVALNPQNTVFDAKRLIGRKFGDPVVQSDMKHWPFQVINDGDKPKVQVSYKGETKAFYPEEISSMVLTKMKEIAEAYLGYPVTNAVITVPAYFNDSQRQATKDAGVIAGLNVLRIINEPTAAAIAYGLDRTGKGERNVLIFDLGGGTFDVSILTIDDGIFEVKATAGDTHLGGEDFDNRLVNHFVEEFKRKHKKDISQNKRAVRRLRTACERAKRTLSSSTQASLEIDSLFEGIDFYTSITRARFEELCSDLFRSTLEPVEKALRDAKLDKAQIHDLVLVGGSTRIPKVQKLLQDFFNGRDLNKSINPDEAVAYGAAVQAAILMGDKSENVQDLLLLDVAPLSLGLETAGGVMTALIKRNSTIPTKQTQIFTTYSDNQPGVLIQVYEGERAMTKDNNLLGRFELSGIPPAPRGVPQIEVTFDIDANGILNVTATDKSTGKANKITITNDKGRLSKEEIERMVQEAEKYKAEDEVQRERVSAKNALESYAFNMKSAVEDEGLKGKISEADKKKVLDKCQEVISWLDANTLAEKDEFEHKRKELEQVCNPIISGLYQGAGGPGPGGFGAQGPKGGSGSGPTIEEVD

[6] = target: T3, Tyrosine-protein phosphatase non-receptor type 7 (Homo sapiens, UniProt P35236); assay type: functional
T3 sequence (P35236 whole entry): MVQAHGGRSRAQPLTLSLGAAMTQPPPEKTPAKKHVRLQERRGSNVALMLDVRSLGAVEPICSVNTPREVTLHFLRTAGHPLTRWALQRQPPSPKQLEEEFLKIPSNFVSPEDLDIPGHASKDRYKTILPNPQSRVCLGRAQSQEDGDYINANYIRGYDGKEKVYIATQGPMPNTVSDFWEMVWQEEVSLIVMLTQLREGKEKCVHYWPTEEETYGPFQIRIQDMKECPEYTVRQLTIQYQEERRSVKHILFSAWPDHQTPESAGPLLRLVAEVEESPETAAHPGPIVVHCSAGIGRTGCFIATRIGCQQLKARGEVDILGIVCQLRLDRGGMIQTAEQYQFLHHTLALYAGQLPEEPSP

[7] = target: Heat shock cognate 71 kDa protein (Homo sapiens, UniProt P11142); assay: In Vitro Hsc70 Dose Response Fluorescence Polarization Assay. [Related pubchem assays: 1072 ]
Heat shock cognate 71 kDa protein, sequence (P11142 whole entry): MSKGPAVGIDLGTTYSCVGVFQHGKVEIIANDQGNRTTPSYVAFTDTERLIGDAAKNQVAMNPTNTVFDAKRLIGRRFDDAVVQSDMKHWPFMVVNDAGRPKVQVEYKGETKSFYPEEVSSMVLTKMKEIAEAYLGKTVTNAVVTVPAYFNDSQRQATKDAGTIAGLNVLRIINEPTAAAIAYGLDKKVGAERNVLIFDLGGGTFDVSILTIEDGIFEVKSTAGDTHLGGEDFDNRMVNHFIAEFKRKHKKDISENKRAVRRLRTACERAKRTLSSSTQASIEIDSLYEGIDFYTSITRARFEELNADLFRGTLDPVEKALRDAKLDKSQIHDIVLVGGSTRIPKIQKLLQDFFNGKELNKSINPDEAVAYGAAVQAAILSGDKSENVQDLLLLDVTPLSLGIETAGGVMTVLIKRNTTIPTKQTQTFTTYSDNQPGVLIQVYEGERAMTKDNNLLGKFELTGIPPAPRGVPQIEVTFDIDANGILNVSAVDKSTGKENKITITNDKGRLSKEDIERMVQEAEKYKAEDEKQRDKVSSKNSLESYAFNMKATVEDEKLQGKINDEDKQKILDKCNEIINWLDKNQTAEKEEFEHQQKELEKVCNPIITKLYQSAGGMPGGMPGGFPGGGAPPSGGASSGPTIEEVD

[8] = target: T4, Alkaline phosphatase, tissue-nonspecific isozyme (Homo sapiens, UniProt P05186)
T4 sequence (P05186 whole entry): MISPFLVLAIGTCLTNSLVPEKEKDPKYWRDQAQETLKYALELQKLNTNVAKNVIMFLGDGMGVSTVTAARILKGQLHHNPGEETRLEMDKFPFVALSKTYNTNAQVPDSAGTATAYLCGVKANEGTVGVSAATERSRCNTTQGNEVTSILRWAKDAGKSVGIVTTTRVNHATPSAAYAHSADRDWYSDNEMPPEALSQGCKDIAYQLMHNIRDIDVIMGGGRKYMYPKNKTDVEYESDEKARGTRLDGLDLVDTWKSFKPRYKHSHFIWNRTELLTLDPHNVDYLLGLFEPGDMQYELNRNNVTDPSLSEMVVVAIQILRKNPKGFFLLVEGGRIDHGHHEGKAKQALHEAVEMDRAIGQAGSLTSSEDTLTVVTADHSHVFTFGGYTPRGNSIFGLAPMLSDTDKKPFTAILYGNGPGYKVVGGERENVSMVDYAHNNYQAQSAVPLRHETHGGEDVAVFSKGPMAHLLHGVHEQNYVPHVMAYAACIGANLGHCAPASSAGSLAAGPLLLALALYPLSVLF

[9] = target: T5, Neuropeptide Y receptor type 1 (Homo sapiens, UniProt P25929); assay: Fluorescence-based counterscreen for agonists of NPY-Y2: cell-based high-throughput dose response assay for agonists of NPY-Y1.; assay type: functional
T5 sequence (P25929 whole entry): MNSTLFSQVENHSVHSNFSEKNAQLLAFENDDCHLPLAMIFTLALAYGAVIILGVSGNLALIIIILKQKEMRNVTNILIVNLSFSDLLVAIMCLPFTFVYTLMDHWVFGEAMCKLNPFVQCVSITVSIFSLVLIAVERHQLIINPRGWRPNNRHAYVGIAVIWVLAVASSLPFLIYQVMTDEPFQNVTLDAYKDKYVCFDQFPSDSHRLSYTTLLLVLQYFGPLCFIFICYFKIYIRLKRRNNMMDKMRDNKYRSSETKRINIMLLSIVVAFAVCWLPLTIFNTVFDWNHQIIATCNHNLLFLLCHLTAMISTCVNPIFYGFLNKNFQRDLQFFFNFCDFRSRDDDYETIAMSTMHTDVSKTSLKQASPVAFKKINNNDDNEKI

HEK293 [10] = assay: Fluorescence-based counterscreen for potentiators or agonists of NPY-Y2: cell-based high-throughput dose response assay to identify inhibitors of cyclic nucleotide gated ion channel (CNGC) activity. In this assay, the parental HEK293 cell line transfected with a cyclic-nucleotide gated ion channel (CNGC)-based cAMP sensor is used to measure inhibition of isoproterenol-induced CNGC activity by test compound.; assay type: functional; conditions: Homo sapiens
[11] = target: T6, Neuropeptide Y receptor type 2 (Homo sapiens, UniProt P49146); assay: Fluorescence-based cell-based high-throughput dose response assay for agonists of NPY-Y2. [Related pubchem assays: 1703 (Screening assay (CNGC inhibitors).), 1359 (Screening assay (NPY-Y2 potentiators or agonists).), 1304 (Screening assay (NPY-Y1 potentiators or agonists).), 1710 (Screening assay (NPY-Y2 agonists).), 1791 (Summary AID.)]; assay type: functional
T6 sequence (P49146 whole entry): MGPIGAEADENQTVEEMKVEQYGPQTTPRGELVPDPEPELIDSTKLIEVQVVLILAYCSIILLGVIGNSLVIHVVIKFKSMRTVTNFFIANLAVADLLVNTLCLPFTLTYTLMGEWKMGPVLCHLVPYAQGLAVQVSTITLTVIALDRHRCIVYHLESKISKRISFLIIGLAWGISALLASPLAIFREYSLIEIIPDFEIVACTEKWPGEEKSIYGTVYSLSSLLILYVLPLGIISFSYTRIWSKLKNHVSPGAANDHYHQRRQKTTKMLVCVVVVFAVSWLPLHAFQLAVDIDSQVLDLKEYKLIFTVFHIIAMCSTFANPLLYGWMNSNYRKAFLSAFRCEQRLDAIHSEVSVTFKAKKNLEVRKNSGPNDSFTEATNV

[12] = target: T7, Nucleotide-binding oligomerization domain-containing protein 1 (Homo sapiens, UniProt Q9Y239); assay: NOD1 signaling inhibitors, SAR follow-up, revised (AID 2333); assay type: functional
T7 sequence (Q9Y239 whole entry): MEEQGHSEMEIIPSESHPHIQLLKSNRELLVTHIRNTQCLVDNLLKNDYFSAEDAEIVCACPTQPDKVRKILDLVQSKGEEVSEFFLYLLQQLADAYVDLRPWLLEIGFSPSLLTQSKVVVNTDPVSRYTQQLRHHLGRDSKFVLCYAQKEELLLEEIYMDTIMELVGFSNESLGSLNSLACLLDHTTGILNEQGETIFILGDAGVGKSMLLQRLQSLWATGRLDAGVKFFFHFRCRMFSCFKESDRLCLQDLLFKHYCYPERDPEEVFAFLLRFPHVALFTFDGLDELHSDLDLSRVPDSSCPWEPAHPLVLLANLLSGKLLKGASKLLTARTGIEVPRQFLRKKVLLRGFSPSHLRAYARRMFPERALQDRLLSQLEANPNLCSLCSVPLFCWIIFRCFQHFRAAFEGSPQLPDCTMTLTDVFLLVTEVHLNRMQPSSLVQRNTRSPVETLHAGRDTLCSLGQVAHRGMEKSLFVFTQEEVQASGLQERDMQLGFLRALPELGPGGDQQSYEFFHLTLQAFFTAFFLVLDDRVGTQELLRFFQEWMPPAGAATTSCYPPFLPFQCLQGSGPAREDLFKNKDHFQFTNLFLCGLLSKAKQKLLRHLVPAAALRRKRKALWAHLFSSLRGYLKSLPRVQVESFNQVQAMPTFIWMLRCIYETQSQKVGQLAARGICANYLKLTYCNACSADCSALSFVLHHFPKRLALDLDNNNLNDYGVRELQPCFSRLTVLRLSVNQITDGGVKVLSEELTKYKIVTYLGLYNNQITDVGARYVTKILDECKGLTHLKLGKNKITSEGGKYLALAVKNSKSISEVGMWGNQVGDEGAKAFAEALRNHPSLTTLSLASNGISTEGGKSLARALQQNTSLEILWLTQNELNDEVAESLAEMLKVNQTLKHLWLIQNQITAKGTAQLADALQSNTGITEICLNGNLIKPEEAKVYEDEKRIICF

[13] = target: Nucleotide-binding oligomerization domain-containing protein 2 (Homo sapiens, UniProt Q9HC29); assay: PubChem AID 2334; assay type: functional
Nucleotide-binding oligomerization domain-containing protein 2, sequence (Q9HC29 whole entry, the tested form may be a part): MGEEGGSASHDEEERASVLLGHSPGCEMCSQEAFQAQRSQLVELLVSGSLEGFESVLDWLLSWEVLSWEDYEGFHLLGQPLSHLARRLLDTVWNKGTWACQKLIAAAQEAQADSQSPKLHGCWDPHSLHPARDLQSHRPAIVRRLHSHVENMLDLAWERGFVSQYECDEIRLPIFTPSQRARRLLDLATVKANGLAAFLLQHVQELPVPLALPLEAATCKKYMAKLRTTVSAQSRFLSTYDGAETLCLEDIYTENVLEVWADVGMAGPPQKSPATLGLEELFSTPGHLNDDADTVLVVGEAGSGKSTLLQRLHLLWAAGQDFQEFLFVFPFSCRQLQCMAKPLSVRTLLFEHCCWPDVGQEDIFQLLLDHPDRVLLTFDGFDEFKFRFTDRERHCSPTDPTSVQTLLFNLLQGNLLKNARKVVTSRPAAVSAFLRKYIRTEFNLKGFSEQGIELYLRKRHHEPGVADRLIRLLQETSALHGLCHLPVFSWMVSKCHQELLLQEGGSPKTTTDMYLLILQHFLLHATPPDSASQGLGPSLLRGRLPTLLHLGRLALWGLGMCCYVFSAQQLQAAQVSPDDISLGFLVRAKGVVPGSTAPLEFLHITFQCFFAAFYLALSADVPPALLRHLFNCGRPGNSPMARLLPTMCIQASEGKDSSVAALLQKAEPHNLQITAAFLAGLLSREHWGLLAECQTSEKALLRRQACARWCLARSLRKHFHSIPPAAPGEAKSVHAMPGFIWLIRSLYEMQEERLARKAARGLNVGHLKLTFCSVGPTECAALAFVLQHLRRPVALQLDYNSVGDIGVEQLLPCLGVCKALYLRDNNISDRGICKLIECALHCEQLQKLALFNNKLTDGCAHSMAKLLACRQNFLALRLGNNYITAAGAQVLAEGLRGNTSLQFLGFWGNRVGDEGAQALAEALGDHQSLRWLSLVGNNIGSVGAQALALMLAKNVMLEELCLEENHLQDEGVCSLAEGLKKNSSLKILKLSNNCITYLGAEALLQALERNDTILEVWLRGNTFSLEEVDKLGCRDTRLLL

HEK293 [14] = assay: cells; conditions: Homo sapiens
Tumor necrosis factor = Tumor necrosis factor (Homo sapiens, UniProt P01375); assay: TNFa-triggered NF-kB activation inhibitors, SAR follow-up, cell-based, revised (AID 2337); assay type: functional
Tumor necrosis factor, sequence (P01375 whole entry): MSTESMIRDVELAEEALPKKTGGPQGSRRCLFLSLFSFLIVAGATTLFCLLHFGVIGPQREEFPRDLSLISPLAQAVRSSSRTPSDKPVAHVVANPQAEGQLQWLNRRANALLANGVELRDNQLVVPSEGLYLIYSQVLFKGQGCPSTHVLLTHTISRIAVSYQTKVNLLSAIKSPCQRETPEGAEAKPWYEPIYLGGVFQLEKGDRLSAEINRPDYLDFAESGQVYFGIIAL

AC50 (Caspase-6): 2 µM (active)
AC50 (Caspase-7): 34.1 µM (active)
IC50 [1]: 4.36 µM (active)
IC50 [2]: 12 µM (active)
AC50 (Caspase-8): > 70 µM (inactive)
IC50 [3]: > 100 µM (not active)
IC50 [4]: 14.2 µM (active)
IC50 [5]: > 100 µM (not active)
IC50 [6]: 9.63 µM (active)
IC50 [7]: > 100 µM (not active)
SMILES: O=C(O)C1Nc2c(Cl)cc(Cl)c(Cl)c2C2C=CCC12 (stereo not drawn)

EC50 [8]: > 100 µM (not active)
SMILES: Cn1c(=O)c2c(nc(N/N=C/c3cccs3)n2Cc2ccc(Br)cc2)n(C)c1=O

SMILES: Cc1c([N+](=O)[O-])c(C(=O)Sc2ccc(Br)cc2)nn1C
EC50 [9]: > 35.4 µM (not active)
EC50 (HEK293 [10]): > 11.8 µM (not active)
EC50 [11]: > 35.4 µM (not active)

SMILES: CCCCNCC(=O)Nc1sc2c(c1C(=O)O)CCCC2
IC50 [12]: > 20 µM (inactive)
IC50 [13]: > 20 µM (inactive)
IC50 (HEK293 [14]): > 20 µM (inactive)
IC50 (Tumor necrosis factor): > 20 µM (inactive)
